Data taken from patent US12427192B2, “Water soluble adjuvant and composition containing same” (Sumitomo Pharma Co., Ltd., priority 2019, dated 2025).

Tested on: HLA-A*24:02 transgenic mouse
Assay: Test 3: in vivo CTL induction, cocktail vaccine b, IFNγ ELISPOT
Details: FIG. 1; for CTL counts responsive to Peptide SEQ ID No. 2 on adding the compound to cocktail vaccine b: vs cocktail vaccine b alone, 100 ng Example 1 or 69 ng Reference example 12 per body, intradermal, twice
Description: Evaluation of In Vivo CTL Induction in HLA-A*24:02 Transgenic Mouse
The in vivo adjuvant activity of the compound of Example 1 and the compound of Reference example 12 was evaluated in the following procedure. To a cocktail vaccine comprising Compound of formula 4 prepared in Reference example 8 and Peptide SEQ ID No. 3 prepared in Reference example 3 with Montanide ISA 51 V (hereinafter, referred to as “cocktail vaccine b”) was added the compound prepared in Example 1 or the compound prepared in Reference example 12 respectively to prepare each vaccine. The vaccine was administered to a HLA-A*24:02 transgenic mouse, and the adjuvant activity of each vaccine was evaluated by the method of testing antigen-specific cytotoxic T-lymphocyte (CTL) induction.
The CYTWNQMNL (SEQ ID No. 2) in Compound of formula 4 corresponds to an antigen peptide derived from an HLA-A*24:02-restricted WT1 protein.
HLA-A*24:02 transgenic mouse (C57BL/6CrHLA-A2402/K^b) expresses a chimeric HLA of a human MHC (HLA-A*24:02) and a mouse MHC (H-2K^b). The mouse can induce CTLs with a peptide which can induce CTLs in HLA-A*24:02-positive human (Int J Cancer. 2002; 100: 565-70).
The character for inducing CTLs specific to the peptide (SEQ ID No. 2) by cocktail vaccine b was evaluated by measuring whether IFNγ can be produced upon stimulation of splenocytes from the mouse with the peptide (SEQ ID No. 2). In addition, the character for exerting in vivo adjuvant activity by the compound in Example 1 or the compound in Reference example 12 was evaluated by comparing the number of CTLs induced by cocktail vaccine b and the number of CTLs induced by the vaccine prepared by adding the compound prepared in Example 1 or the compound in Reference example 12 to cocktail vaccine b, and checking presence or absence of the increase on the number.
Specifically, Compound of formula 4 and Peptide SEQ ID No. 3 were dissolved in DMSO, and then diluted with water for injection to concentrations of Compound of formula 4 of 6 mg/ml and Peptide of SEQ ID No. 3 of 4.5 mg/ml. […]

SMILES | increase of the CTL counts (Peptide SEQ ID No. 2) compared with Reference example 12 (added to cocktail vaccine b, 100 ng Example 1 vs 69 ng Reference example 12 per body) | CTL counts responsive to Peptide SEQ ID No. 2 on adding the compound to cocktail vaccine b
CCCCCNc1nc(N)nc(C)c1Cc1ccc(CN(C)CCOCCOCCOCCOCCO)cc1OC [Example 1, 1-(4-{[2-amino-4-methyl-6-(pentylamino)pyrimidin-5-yl]methyl}-3-methoxyphenyl)-2-methyl-5,8,11,14-tetraoxa-2-azahexadecan-16-ol·trifluoroacetate] | more | increased
CCCCCNc1nc(N)nc(C)c1Cc1ccc(CNC)cc1OC [Reference example 12, 5-({2-methoxy-4-[(methylamino)methyl]phenyl}methyl)-6-methyl-N^4-pentylpyrimidine-2,4-diamine, reference compound] |  | increased
